These results are taken from ChEMBL document CHEMBL1145218, “QSAR study on pK(a) vis-à-vis physiological activity of sulfonamides: a dominating role of surface tension (inverse steric parameter)” (Bioorg Med Chem Lett, 2005).

This data set is described as follows: pKa value. Format: physicochemical.
A word on the pKa: it is the negative logarithm of the acid dissociation constant. The low end stands for a stronger acid or weaker base, the high end for a weaker acid or stronger base. For `COc1ccc(S(=O)(=O)Nc2ccc(F)cc2)cc1`, the pKa was 9.32.

On to `Cc1ccc(S(=O)(=O)Nc2cccc([N+](=O)[O-])c2)cc1`, for which the pKa is 8.27.

Compound `O=S(=O)(Nc1ccc(Cl)cc1)c1ccc(Br)cc1` came in with a pKa of 8.24.

As for `O=S(=O)(Nc1ccc(F)cc1)c1ccc(Cl)cc1`, the pKa turned out to be 8.41.

`Cc1ccc(NS(=O)(=O)c2ccc(F)cc2)cc1` registered a pKa of 9.23.

In turn, `COc1ccc(S(=O)(=O)Nc2ccc(C)cc2)cc1` returned a pKa of 9.8.

Take `O=[N+]([O-])c1cccc(S(=O)(=O)Nc2ccccc2)c1`: the pKa amounted to 7.5.

`Nc1ccc(NS(=O)(=O)c2ccccc2)cc1` came in with a pKa of 10.3.

`O=S(=O)(Nc1ccc(F)cc1)c1ccccc1` displayed a pKa of 8.85.

For `Cc1ccc(NS(=O)(=O)c2ccccc2)cc1`, the pKa came to 9.34.

As for `Cc1ccc(S(=O)(=O)Nc2ccc(F)cc2)cc1`, the pKa worked out at 9.2.

The compound `O=S(=O)(Nc1ccc(Cl)cc1)c1ccccc1` registered a pKa of 8.75.

On to `O=[N+]([O-])c1cccc(NS(=O)(=O)c2ccc(F)cc2)c1`, for which the pKa is 7.85.

Compound `O=S(=O)(Nc1ccccc1)c1ccc(Cl)cc1` registered a pKa of 8.47.

`O=[N+]([O-])c1cccc(S(=O)(=O)Nc2ccc(Cl)cc2)c1` displayed a pKa of 7.19.

As for `Cc1ccc(NS(=O)(=O)c2ccc([N+](=O)[O-])cc2)cc1`, the pKa was 6.78.

The compound `O=[N+]([O-])c1cccc(S(=O)(=O)Nc2ccc(F)cc2)c1` yielded a pKa of 7.27.

In the case of `O=S(=O)(Nc1ccccc1)c1ccc(Br)cc1`, the pKa was 8.5.

The compound `O=S(=O)(Nc1ccccc1)c1cccc(Br)c1` displayed a pKa of 8.25.

For `Nc1ccc(NS(=O)(=O)c2ccc(Cl)cc2)cc1`, the pKa is 9.76.

`O=[N+]([O-])c1cccc(NS(=O)(=O)c2ccccc2)c1` gave a pKa of 7.93.

As to `Cc1ccc(S(=O)(=O)Nc2ccccc2)cc1`, the pKa turned out to be 9.35.

In turn, `O=S(=O)(Nc1ccccc1)c1ccc(F)cc1` showed a pKa of 8.9.

`O=S(=O)(Nc1ccc(Cl)cc1)c1ccc(Cl)cc1`: the pKa stood at 8.3.

`Cc1cccc(S(=O)(=O)Nc2ccc(N)cc2)c1` yielded a pKa of 10.4.

Take `O=[N+]([O-])c1cccc(NS(=O)(=O)c2ccc(Br)cc2)c1`: the pKa was 7.42.

In turn, `Cc1ccc(S(=O)(=O)Nc2ccc(N)cc2)cc1` showed a pKa of 10.5.

Regarding `O=S(=O)(Nc1ccccc1)c1ccccc1` [PHENYL(PHENYLSULFONYL)AMINE], the pKa turned out to be 9.1.

As for `Cc1ccc(NS(=O)(=O)c2ccc(C)cc2)cc1`, the pKa was found to be 9.65.

For the compound `O=[N+]([O-])c1ccc(S(=O)(=O)Nc2ccc(Cl)cc2)cc1`, the pKa was determined as 6.24.

In turn, `COc1ccc(S(=O)(=O)Nc2ccccc2)cc1` displayed a pKa of 9.42.

Take `O=S(=O)(Nc1ccc(F)cc1)c1ccc(F)cc1`: the pKa amounted to 8.73.

Turning to `Cc1ccc(S(=O)(=O)Nc2ccc(Cl)cc2)cc1`, the pKa was 9.02.

As to `O=[N+]([O-])c1ccc(S(=O)(=O)Nc2ccc(F)cc2)cc1`, the pKa is 6.45.

Consider `COc1ccc(S(=O)(=O)Nc2cccc([N+](=O)[O-])c2)cc1`, for which the pKa turned out to be 8.44.

`O=S(=O)(Nc1ccc(Cl)cc1)c1ccc(F)cc1` gave a pKa of 8.61.

Compound `O=S(=O)(Nc1ccc(F)cc1)c1ccc(Br)cc1` gave a pKa of 8.38.

In turn, `O=[N+]([O-])c1ccc(S(=O)(=O)Nc2cccc([N+](=O)[O-])c2)cc1` displayed a pKa of 5.51.

Take `COc1ccc(S(=O)(=O)Nc2ccc(Cl)cc2)cc1`: the pKa is 9.19.

The compound `Cc1ccc(NS(=O)(=O)c2ccc(Cl)cc2)cc1` gave a pKa of 8.78.

Consider `O=[N+]([O-])c1cccc(NS(=O)(=O)c2ccc(Cl)cc2)c1`, for which the pKa came to 7.51.

In turn, `Cc1ccc(NS(=O)(=O)c2cccc([N+](=O)[O-])c2)cc1` showed a pKa of 7.8.
